Data reported in US20030162759A1, “Aldosterone blocker therapy to prevent or treat inflammation-related disorders” (priority 2000, published 2003).

Test system: Atrial natriuretic factor (ANP)
Experiment: Assay C: ANP mRNA in left ventricle (TaqMan)
Format: in vivo, rat
Experimental: The procedure of Assay B was expanded upon in a further study. […] Myocardial tissue from animals in each treatment group was examined after 7, 14, or 30 days of treatment.
Potassium chloride supplementation was added to the saline solution in order to prevent the potential hypokalemia associated with aldosterone excess.
At the time of the surgery, an Alzet 2002 osmotic minipump (Alza Corp., Palo Alto, Calif.) containing either vehicle (9% ethanol/87% propylene glycol/4% dH2O) or 1.0 mg/mL d-aldosterone (Sigma Chemical, St. Louis, Mo.) was inserted subcutaneously at the nape of the neck. Aldosterone was administered at a dose of 0.75 g/hour. […] Animals were sacrificed from each group (n=8-13) after 7, 14, or 30 days of treatment. […]
The fluorogenic 5′-nuclease assay (TaqMan PCR) using Applied Biosystems' 7700 Sequence Detection System (Applied Biosystems, Foster City, Calif.) allowed for real time detection/quantitation of a specific gene by monitoring the increase in fluorescence of a gene-specific, dye-labeled oligonucleotide probe. […] When the probe was annealed to the target gene, fluorescence of 6FAM was prevented by the close proximity of TAMRA. The exonuclease activity of Taq polymerase released the dyes from the oligonucleotide probe by displacing the probe from the target sequence resulting in fluorescence excitation in direct proportion to the amount of target message present. […]

## COC(=O)[C@@H]1CC2=CC(=O)CC[C@]2(C)[C@@]23O[C@@H]2C[C@@]2(C)[C@@H](CC[C@@]24CCC(=O)O4)[C@H]13 [eplerenone, Pregn-4-ene-7,21-dicarboxylic acid, 9,11-epoxy-17-hydroxy-3-oxo-, γ-lactone, methyl ester, (7α, 11α, 17β) -]
After 30 days of treatment
  ANP mRNA upregulation: significantly reduced
Mean ± SEM after 30 days of treatment, relative to cyclophilin expression, eplerenone 100 mg/kg/day
  ANP mRNA: 9.20 ± 2.44 AU
